Results as given in PubChem BioAssay AID2060485 (Molecular Pharmacology Branch, DTP, NCI, 2025).

Tested on: A375 multi-cell spheroids with HUVEC/MSC, viability
Test: Anticancer human tumor A375 cell line growth inhibition [GQUAD];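 further: spheroids exposed to compounds for seven days before readout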
Settings: for IC50: curve of first compound; for viability, T/C: stronger effect = lower value
Method in brief: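 Tumor cells were grown as complex spheroids with HUVEC endothelial cells and mesenchymal stem cells as stroma. G-quadruplex stabilizers were combined with targeted agents over half-log dilutions from near the clinical Cmax, or from 10 microM.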

[1] = second compound 0.0316 µM, first compound 0.0316 µM
[2] = second compound 0.0316 µM, first compound 0.316 µM
[3] = second compound 0.1 µM, first compound 0.0316 µM
[4] = second compound 0.1 µM, first compound 0.316 µM
[5] = second compound 0.316 µM, first compound 0.0316 µM
[6] = second compound 0.316 µM, first compound 0.316 µM
[7] = second compound 1 µM, first compound 0.0316 µM
[8] = second compound 1 µM, first compound 0.316 µM
[9] = second compound 3.16 µM, first compound 0.0316 µM
[10] = second compound 3.16 µM, first compound 0.316 µM
[11] = second compound 10 µM, first compound 0.0316 µM
[12] = second compound 10 µM, first compound 0.316 µM
[13] = second compound 0.0316 µM, first compound 0.1 µM
[14] = second compound 0.0316 µM, first compound 1 µM
[15] = second compound 0.0316 µM, first compound 3.16 µM
[16] = second compound 0.0316 µM, first compound 10 µM
[17] = second compound 0.1 µM, first compound 0.1 µM
[18] = second compound 0.1 µM, first compound 1 µM
[19] = second compound 0.1 µM, first compound 3.16 µM
[20] = second compound 0.1 µM, first compound 10 µM
[21] = second compound 0.316 µM, first compound 0.1 µM
[22] = second compound 0.316 µM, first compound 1 µM
[23] = second compound 0.316 µM, first compound 3.16 µM
[24] = second compound 0.316 µM, first compound 10 µM
[25] = second compound 1 µM, first compound 0.1 µM
[26] = second compound 1 µM, first compound 1 µM
[27] = second compound 1 µM, first compound 3.16 µM
[28] = second compound 1 µM, first compound 10 µM
[29] = second compound 3.16 µM, first compound 0.1 µM
[30] = second compound 3.16 µM, first compound 1 µM
[31] = second compound 3.16 µM, first compound 3.16 µM
[32] = second compound 3.16 µM, first compound 10 µM
[33] = second compound 10 µM, first compound 0.1 µM
[34] = second compound 10 µM, first compound 1 µM
[35] = second compound 10 µM, first compound 3.16 µM
[36] = second compound 10 µM, first compound 10 µM

Cc1[nH]c2ccccc2c1CCNCc1ccc(/C=C/C(=O)NO)cc1 + Cc1[nH]c2ccc(F)cc2c1-c1nc2c3cccnc3c3ncccc3c2[nH]1
IC50 (second compound 0.0316 µM): 153 nM | IC50 (second compound 0.1 µM): 150 nM | IC50 (second compound 0.316 µM): 152 nM | IC50 (second compound 1 µM): 138 nM | IC50 (second compound 3.16 µM): 60.6 nM | IC50 (second compound 10 µM): 95.8 nM | viability, T/C (second compound 0.0316 µM, first compound 0.000999 µM): 102% | viability, T/C (second compound 0.0316 µM, first compound 0.00316 µM): 108% | viability, T/C (second compound 0.0316 µM, first compound 0.00999 µM): 115% | viability, T/C [1]: 112% | viability, T/C (second compound 0.0316 µM, first compound 0.0999 µM): 73.4% | viability, T/C [2]: 10.5% | viability, T/C (second compound 0.1 µM, first compound 0.000999 µM): 105% | viability, T/C (second compound 0.1 µM, first compound 0.00316 µM): 109% | viability, T/C (second compound 0.1 µM, first compound 0.00999 µM): 110% | viability, T/C [3]: 124% | viability, T/C (second compound 0.1 µM, first compound 0.0999 µM): 72% | viability, T/C [4]: 9.67% | viability, T/C (second compound 0.316 µM, first compound 0.000999 µM): 110% | viability, T/C (second compound 0.316 µM, first compound 0.00316 µM): 98.1% | viability, T/C (second compound 0.316 µM, first compound 0.00999 µM): 118% | viability, T/C [5]: 116% | viability, T/C (second compound 0.316 µM, first compound 0.0999 µM): 72.4% | viability, T/C [6]: 10.8% | viability, T/C (second compound 1 µM, first compound 0.000999 µM): 98% | viability, T/C (second compound 1 µM, first compound 0.00316 µM): 103% | viability, T/C (second compound 1 µM, first compound 0.00999 µM): 113% | viability, T/C [7]: 106% | viability, T/C (second compound 1 µM, first compound 0.0999 µM): 65.9% | viability, T/C [8]: 8.42% | viability, T/C (second compound 3.16 µM, first compound 0.000999 µM): 76.4% | viability, T/C (second compound 3.16 µM, first compound 0.00316 µM): 78.5% | viability, T/C (second compound 3.16 µM, first compound 0.00999 µM): 81.9% | viability, T/C [9]: 86% | viability, T/C (second compound 3.16 µM, first compound 0.0999 µM): 26.4% | viability, T/C [10]: 5.39% | viability, T/C (second compound 10 µM, first compound 0.000999 µM): 86% | viability, T/C (second compound 10 µM, first compound 0.00316 µM): 93% | viability, T/C (second compound 10 µM, first compound 0.00999 µM): 98.3% | viability, T/C [11]: 92.2% | viability, T/C (second compound 10 µM, first compound 0.0999 µM): 48.4% | viability, T/C [12]: 5.49%

O=C(NO)c1cnc(N2CCN(S(=O)(=O)c3ccc4ccccc4c3)CC2)nc1 + Cc1[nH]c2ccc(F)cc2c1-c1nc2c3cccnc3c3ncccc3c2[nH]1
IC50 (second compound 0.0316 µM): 203 nM | IC50 (second compound 0.1 µM): 445 nM | IC50 (second compound 0.316 µM): 507 nM | IC50 (second compound 1 µM): 447 nM | IC50 (second compound 3.16 µM): 202 nM | IC50 (second compound 10 µM): 251 nM | viability, T/C [1]: 104% | viability, T/C [13]: 113% | viability, T/C [2]: 13.4% | viability, T/C [14]: 0.27% | viability, T/C [15]: 0.25% | viability, T/C [16]: 0.27% | viability, T/C [3]: 105% | viability, T/C [17]: 119% | viability, T/C [4]: 71% | viability, T/C [18]: 0.27% | viability, T/C [19]: 0.8% | viability, T/C [20]: 0.26% | viability, T/C [5]: 106% | viability, T/C [21]: 112% | viability, T/C [6]: 84.5% | viability, T/C [22]: 0.24% | viability, T/C [23]: 0.19% | viability, T/C [24]: 0.23% | viability, T/C [7]: 109% | viability, T/C [25]: 106% | viability, T/C [8]: 71.3% | viability, T/C [26]: 0.21% | viability, T/C [27]: 0.15% | viability, T/C [28]: 0.23% | viability, T/C [9]: 96.3% | viability, T/C [29]: 89.5% | viability, T/C [10]: 24.7% | viability, T/C [30]: 0.19% | viability, T/C [31]: 0.16% | viability, T/C [32]: 0.22% | viability, T/C [11]: 111% | viability, T/C [33]: 105% | viability, T/C [12]: 36.2% | viability, T/C [34]: 0.21% | viability, T/C [35]: 0.21% | viability, T/C [36]: 0.25%

O=c1[nH]cc(F)c(=O)[nH]1 + Cc1[nH]c2ccc(F)cc2c1-c1nc2c3cccnc3c3ncccc3c2[nH]1
IC50 (second compound 0.0316 µM): > 10000 nM | IC50 (second compound 0.1 µM): > 10000 nM | IC50 (second compound 0.316 µM): > 10000 nM | IC50 (second compound 1 µM): > 10000 nM | IC50 (second compound 3.16 µM): > 10000 nM | IC50 (second compound 10 µM): > 10000 nM | viability, T/C [1]: 102% | viability, T/C [13]: 99% | viability, T/C [2]: 109% | viability, T/C [14]: 105% | viability, T/C [15]: 97.9% | viability, T/C [16]: 92.9% | viability, T/C [3]: 106% | viability, T/C [17]: 93.2% | viability, T/C [4]: 105% | viability, T/C [18]: 114% | viability, T/C [19]: 103% | viability, T/C [20]: 101% | viability, T/C [5]: 96% | viability, T/C [21]: 92.9% | viability, T/C [6]: 102% | viability, T/C [22]: 95.2% | viability, T/C [23]: 112% | viability, T/C [24]: 103% | viability, T/C [7]: 101% | viability, T/C [25]: 103% | viability, T/C [8]: 111% | viability, T/C [26]: 97.6% | viability, T/C [27]: 115% | viability, T/C [28]: 102% | viability, T/C [9]: 83.9% | viability, T/C [29]: 90.9% | viability, T/C [10]: 93.6% | viability, T/C [30]: 88.4% | viability, T/C [31]: 101% | viability, T/C [32]: 80.3% | viability, T/C [11]: 88.2% | viability, T/C [33]: 81.6% | viability, T/C [12]: 111% | viability, T/C [34]: 104% | viability, T/C [35]: 96.3% | viability, T/C [36]: 77.4%
